In patent US20060276446A1, “Tricyclic 6-alkylidene-penems as class-D beta-lactamases inhibitors” (priority 2005, published 2006):

test system: class-D producing organism E. coli GC 2883 (OXA-10 + PSE-2); assay: Antimicrobial susceptibility testing, microbroth dilution (NCCLS): piperacillin combined with β-lactamase inhibitor; format: cell-based; conditions: MIC of piperacillin combined with constant 4 μg/mL of the β-lactamase inhibitor (example compound), 35° C. for 18 hours
Protocol: Antimicrobial susceptibility testing. The in vitro activities of the antibiotic, piperacillin in this case, against resistant pathogens expressing class-D enzymes were determined by the microbroth dilution method as recommended by the National Committee for Clinical Laboratory Standards (NCCLS). (NCCLS. 2000. Methods for Dilution Antimicrobial Susceptibility Tests for Bacteria That Grow Aerobically; Approved Standards: M7-A5, vol. 19. National Committe for Clinical Laboratory Standards, Villanova, Pa.). Mueller-Hinton II broth (MHBII)(BBL Cockeysville, Md.), was used for the testing procedure. Microtiter plates containing 50 μl per well of two-fold serial dilutions of piperacillin combined with a constant amount (4 μg/mL) of β-lactamase inhibitor (final concentration) were inoculated with 50 μl of inoculum to yield the appropriate density (10^5 CFU/mL) in 100 μL. The plates were incubated for 18-22 hours at 35° C. in ambient air. […] Both OXA-10 and PSE-2 are class D β-lactamases. (Bush, K., Jacoby, G. A., Medeiros, A. A. Antimicrob. Agents Chemother., 1995, 39, 1211).

| Compound | Minimal Inhibitory Concentration (MIC50) |
| --- | --- |
| (5R,6Z)-7-oxo-6-(4H-thieno[2′,3′:4,5]thiopyrano[2,3-b]pyridin-2-ylmethylene)-4-thia-1-azabicyclo[3.2.0]hept-2-ene-2-carboxylic acid (Sodium salt) [Example 21] | 64 µg/mL |
| O=C(O)C1=CS[C@@H]2/C(=C\c3cn4c5c(sc4n3)COCC5)C(=O)N12 [Example 15, (5R),(6Z)-6-(5,8-dihydro-6H-imidazo[2,1-b]pyrano[4,3-d][1,3]thiazol-2-ylmethylene)-7-oxo-4-thia-1-azabicyclo[3.2.0]hept-2-ene-2-carboxylic acid] | 4 µg/mL |
| O=C(O)C1=CS[C@@H]2/C(=C\c3cn4c5c(sc4n3)CCCC5)C(=O)N12 [Example 19, (5R),(6Z)-7-oxo-6-(5,6,7,8-tetrahydroimidazo[2,1-b][1,3]benzothiazol-2-ylmethylene)-4-thia-1-azabicyclo[3.2.0]hept-2-ene-2-carboxylic acid] | 2 µg/mL |
| Cn1c2ccccc2n2cc(/C=C3/C(=O)N4C(C(=O)O)=CS[C@H]34)nc12 [Example 20, (5R),(6Z)-8-[(9-methyl-9H-imidazo[1,2-a]benzimidazol-2-yl)methylene]-7-oxo-4-thia-1-azabicyclo[3.2.0]hept-2-ene-2-carboxylic acid] | 64 µg/mL |
| O=C(O)C1=CS[C@@H]2/C(=C\c3cn4c(nc5ccccc54)s3)C(=O)N12 [Example 17, (5R),(6Z)-7-oxo-6-([1,3]thiazolo[3,2-a]benzimidazol-2-ylmethylene)-4-thia-1-azabicyclo[3.2.0]hept-2-ene-2-carboxylic acid] | 32 µg/mL |
| COc1ccc2c(c1)sc1nc(/C=C3/C(=O)N4C(C(=O)O)=CS[C@H]34)cn12 [Example 2] | 4 µg/mL |
| O=C(O)C1=CS[C@@H]2/C(=C\c3cn4c(n3)sc3cc(Cl)ccc34)C(=O)N12 [Example 3] | 2 µg/mL |
| O=C([O-])C1=CS[C@@H]2/C(=C\c3cn4c(n3)nc3n4CCCC3)C(=O)N12.[Na+] [Example 8, (5R),(6Z)-6-(4,5,6,7-tetrahydro-1,3a,3b,8-tetraaza-cyclopenta[a]indene-2-ylmethylene)-7-oxo-4-thia-1-aza-bicyclo[3.2.0]hept-2-ene-2-carboxylic acid sodium salt] | 2 µg/mL |
| O=C(O)C1=CS[C@@H]2/C(=C\c3cn4c5c(sc4n3)CCC5)C(=O)N12 [Example 5, (5R),(6Z)-6-(6,7-dihydro-5H-cyclopenta[d]imidazo[2,1-b][1,3]thiazol-2-ylmethylene)-7-oxo-4-thia-1-azabicyclo[3.2.0]hept-2-ene-2-carboxylic acid] | 2 µg/mL |
| CCOC(=O)N1CCc2c(oc3cc(/C=C4/C(=O)N5C(C(=O)[O-])=CS[C@H]45)nn23)C1.[Na+] [Example 33] | 8 µg/mL |
| Cc1ccc2c(c1)sc1nc(/C=C3/C(=O)N4C(C(=O)O)=CS[C@H]34)cn12 [Example 7] | 2 µg/mL |
| O=C(O)C1=CS[C@@H]2/C(=C\c3cn4c(ccc5ccccc54)n3)C(=O)N12 [Example 4, (5R),(6Z)-6-Imidazo[1,2-a]quinolin-2-ylmethylene-7-oxo-4-thia-1-azabicyclo[3.2.0]hept-2-ene-2-carboxylic acid] | 4 µg/mL |
| O=C(O)C1=CS[C@@H]2/C(=C\c3cn4c(n3)sc3cc(F)ccc34)C(=O)N12 [Example 14] | 4 µg/mL |
| Cc1cccc2sc3nc(/C=C4/C(=O)N5C(C(=O)O)=CS[C@H]45)cn3c12 [Example 13] | 4 µg/mL |
| O=C(O)C1=CS[C@@H]2/C(=C\c3cn4nc5c(c4s3)CCC5)C(=O)N12 [Example 18, (5R),(6Z)-6-(7,8-dihydro-6H-cyclopenta[3.4]pyrazolo[5,1-b][1,3]thiazol-2-ylmethylene)-7-oxo-6-4-thia-1-azabicyclo[3.2.0]hept-2-ene-2-carboxylic acid] | 16 µg/mL |
| O=C([O-])C1=CS[C@@H]2C(=Cc3cc4n(n3)Cc3ccccc3OC4)C(=O)N12.[Na+] [Example 11, (5R,6E&Z)-7-oxo-6-(4H,10H-pyrazolo[5,1-c][1,4]benzoxazepin-2-ylmethylene)-4-thia-1-azabicyclo[3.2.0]hept-2-ene-2-carboxylic acid, sodium salt] | 4 µg/mL |
| O=C([O-])C1=CS[C@@H]2/C(=C\c3cn4c(cnc5ccccc54)n3)C(=O)N12.[Na+] [Example 6, (5R),(6Z)-6-(Imidazo[1,2-a]quinoxaline-2-ylmethylene)-7-oxo-4-thia-1-azabicyclo[3.2.0]hepto-2-ene-2-carboxylic acid, sodium salt] | 0.06 µg/mL |
| O=C([O-])C1=CS[C@@H]2/C(=C\c3cccc4nc5n(c34)CCS5)C(=O)N12.[Na+] [Example 28, (5R,6Z)-6-(2,3-dihydro[1,3]thiazolo[3,2-a]benzimidazol-4-ylmethylene)-7-oxo-4-thia-1-azabicyclo[3.2.0]hept-2-ene-2-carboxylic acid, sodium salt] | 16 µg/mL |
| O=C(O)C1=CS[C@@H]2/C(=C\c3ccc4c(c3)sc3nccn34)C(=O)N12 [Example 16, (5R),(6Z)-6-(imidazo[2,1-b]bebzothiazol-7-ylmethylene)-7-oxo-4-thia-1-azabicyclo[3.2.0]hept-2-ene-2-carboxylic acid] | 32 µg/mL |
| O=C([O-])C1=CS[C@@H]2/C(=C\c3cn4c(n3)-c3ccccc3C4)C(=O)N12.[Na+] [Example 12, (5R),(6Z)-6-(5H-Imidazo[2,1-a]isoindol-2-ylmethylene)-7-oxo-4-thia-1-aza-bicyclo[3.2.0]hept-2-ene-2-carboxylic acid sodium salt] | 16 µg/mL |

test system: not given; assay: not given; conditions: not given

| melting point | Compound |
| --- | --- |
| > 250 °C (dec.) | O=C([O-])C1=CS[C@@H]2/C(=C\c3nc4ncc5c(n4n3)CCC3(C5)OCCO3)C(=O)N12.[Na+] [Example 24, (5R,6Z)-6-(8′,9′-dihydro-6′H-spiro[1,3-dioxolane-2,7′-[1,2,4]triazolo[1,5-a]quinazolin]-2′-ylmethylene)-7-oxo-4-thia-1-azabicyclo[3.2.0]hept-2-ene-2-carboxylic acid, sodium salt] |
| > 250 °C | O=C([O-])C1=CS[C@@H]2/C(=C\c3ccc4nc5n(c4c3)CCCS5)C(=O)N12.[Na+] [Example 29, (5R,6Z)-6-(3,4-dihydro-2H-[1,3]thiazino[3,2-a]benzimidazol-7-ylmethylene)-7-oxo-4-thia-1-azabicyclo[3.2.0]hept-2-ene-2-carboxylic acid, sodium salt] |
| 250 °C (dec.) | Cc1nc2nc(/C=C3/C(=O)N4C(C(=O)[O-])=CS[C@H]34)nn2c2c1CCCC2.[Na+] [Example 25, (5R,6Z)-6-[(5-methyl-6,7,8,9-tetrahydro[1,2,4]triazolo[1,5-a]quinazolin-2-yl)methylene]-7-oxo-4-thia-1-azabicyclo[3.2.0]hept-2-ene-2-carboxylic acid, sodium salt] |
| > 250 °C | O=C([O-])C1=CS[C@@H]2/C(=C\c3ccc4nc5sccn5c4c3)C(=O)N12.[Na+] [Example 30, (5R,6Z)-7-oxo-6-([1,3]thiazolo[3,2-a]benzimidazol-6-ylmethylene)-4-thia-1-azabicyclo[3.2.0]hept-2-ene-2-carboxylic acid, sodium salt] |
| > 250 °C | O=C([O-])C1=CS[C@@H]2/C(=C\c3cn4c5c(c(OCCOCc6ccccc6)nc4n3)CCC5)C(=O)N12.[Na+] [Example 27, (5R,6Z)-6-({5-[2-(benzyloxy)ethoxy]-7,8-dihydro-6H-cyclopenta[e]imidazo[1,2-a]pyrimidin-2-yl}methylene)-7-oxo-4-thia-1-azabicyclo[3.2.0]hept-2-ene-2-carboxylic acid, sodium salt] |
